Measured values taken from US10456388B2, “Antihistamine for use in treatment of breast cancer” (BELINA PHARMA AB, priority 2015, dated 2019).
Like-named read-outs stand apart in the source and are kept apart here.

Columns and labels:
breast cancer cases = experiment: Replication study, extended breast cancer material Swedish Cancer Registry 2000-2013 (n=103 500 cases), late entry models; format: in vivo, human; conditions: for Breast cancer survival HR / Overall survival HR: use after diagnosis, adjusted for age, tumour stage, late entry models; for Breast cancer survival HR by desloratadine use: late entry model; for Survival of users compared with non-users, in words: replication study, Table 10; for BC survival HR: extended study, real patient data
Experimental: Using an extended breast cancer material of all cases from the Swedish Cancer Registry 2000-2013 (n=103 500 cases) linking the data with the Drug Prescription Registry a replication study was carried out. The data from this extended study can be found in Tables 10 and 11. With the larger set of data, the effect for each individual antihistamine becomes more pronounced.
Using an extended breast cancer material of all cases from the Swedish Cancer Registry 2000-2013 (n=103 500 cases) linking the data with the Drug Prescription Registry a replication study was carried out. The data from this extended study are represented in tables 10 and 11.
Using an extended breast cancer material of all cases from the Swedish Cancer Registry 2000-2013 (n=103 500 cases) linking the data with the Drug Prescription Registry, a replication study was carried out, as shown in table 10.

women with invasive BC [1] = conditions: for Hazard ratio Exp(B), ER Negative Breast Cancer / Hazard ratio Exp(B), ER Positive Breast Cancer / BC specific survival compared to controls (Kaplan-Meier, univariate): late entry model; for Hazard ratio Exp(B), ER Negative Breast Cancer / Hazard ratio Exp(B), ER Positive Breast Cancer / Hazard ratio Exp(B), Cox proportional hazard - late entry model: adjusted for age at BC diagnosis and TN-stage; for HR (CI), late entry model: adjusted for age at BC diagnosis and TN; for Hazard ratio Exp(B), Cox proportional hazard - late entry model: ever-use vs controls, cases before 1st of Jul. 2005 and unknown N-status censored, Table 5; for Dead in BC (Yes): groups by main antihistamine used, patients from 1st of Jul. 2005-31st of Dec. 2008; for BC specific survival compared to controls (Kaplan-Meier, univariate): FIGS. 4 and 5
women with invasive BC [2] = conditions: for BC specific survival compared to controls (Kaplan-Meier, univariate): ever-use model, FIGS. 1 to 3; for Dead in BC (Yes): groups by main antihistamine used, all patients from 2000-2008
[3] = multi dose studies with 100 mg per day; cited from earlier work
[4] = Survival 2009-2014 (title: 2009-2013)

| SMILES | Breast cancer survival HR (breast cancer cases; Survival 2005-2008) | Overall survival HR (breast cancer cases; Survival 2005-2008) | Breast cancer survival HR (breast cancer cases; [4]) | Overall survival HR (breast cancer cases; [4]) | Hazard ratio Exp(B), ER Negative Breast Cancer (women with invasive BC [1]) | Hazard ratio Exp(B), ER Positive Breast Cancer (women with invasive BC [1]) | HR (CI), late entry model (women with invasive BC [1]) | Hazard ratio Exp(B), Cox proportional hazard - late entry model (women with invasive BC [1]) | Dead in BC (Yes) (women with invasive BC [1]) | BC specific survival compared to controls (Kaplan-Meier, univariate) (women with invasive BC [1]) | BC specific survival compared to controls (Kaplan-Meier, univariate) (women with invasive BC [2]) | Dead in BC (Yes) (women with invasive BC [2]) | Breast cancer survival HR by desloratadine use (breast cancer cases; <400 days use vs never) | Survival of users compared with non-users, in words (breast cancer cases) | Survival HR, users compared with non users (breast cancer cases; years before 2009) | Breast cancer survival HR by desloratadine use (breast cancer cases; ≥400 days use vs never) | Effect on breast cancer survival rate by treatment period (FIG. 7) (women with invasive BC [1]; use only after the BC diagnosis) | Effect on breast cancer survival rate by treatment period (FIG. 7) (women with invasive BC [1]; use only before the BC diagnosis) | Clinical side effects [3] | BC survival HR (breast cancer cases) |
| --- | --- | --- | --- | --- | --- | --- | --- | --- | --- | --- | --- | --- | --- | --- | --- | --- | --- | --- | --- | --- |
| CCOC(=O)N1CCC(=C2c3ccc(Cl)cc3CCc3cccnc32)CC1 [Loratadine, loratadine] | 0.77 | 1.05 | 0.93 | 0.86 | .945 | 1.087 | 0.74 (0.60-0.93) | .816 | 10.4% | statistically significant longer BC specific survival | clear, statistically significant, longer BC specific survival | 11.7% | – | – | – | – | – | – | – | – |
| Clc1ccc2c(c1)CCc1cccnc1C2=C1CCNCC1 [Desloratadine, desloratadine] | 0.47 | 0.47 | 0.74 | 0.71 | – | – | – | – | 8.1% | statistically significant longer BC specific survival | clear, statistically significant, longer BC specific survival | 7.1% | 0.94 | better overall and BC specific survival | 0.63 | 0.62 | clear positive effects can be shown | no positive effects on breast cancer survival rate can be established | – | – |
| CC(C)(C)c1ccc(C(=O)CCCN2CCC(OC(c3ccccc3)c3ccccc3)CC2)cc1 [Ebastin, ebastin] | 0.25 | 0.48 | 0.75 | 0.91 | – | – | 0.50 (0.22-1.12) | – | 5.7% | statistically significant longer BC specific survival | clear, statistically significant, longer BC specific survival | 6.7% | – | better overall and BC specific survival | – | – | – | – | did not show any further clinical side effects | – |
| CN1CCC[C@@H]1CCO[C@](C)(c1ccccc1)c1ccc(Cl)cc1 [Klemastine, klemastine] | 1.43 | 2.07 | 0.94 | 1.08 | – | – | 0.98 (0.80-1.19) | – | 14.3% | non-statistically significant longer BC specific survival | clear, statistically significant, longer BC specific survival | 13.8% | – | negatively affects survival | – | – | – | – | – | 1.12 |
| O=C(O)COCCN1CCN(C(c2ccccc2)c2ccc(Cl)cc2)CC1 (centres unmarked) [Cetirizine, cetirizine] | 1.08 | 1.41 | 1.21 | 1.09 | 1.491 | 2.166 | 1.13 (0.96-1.33) | 1.194 | 16.5% | non-statistically significant longer BC specific survival | initially had a higher survival percentage compared to controls, but with time it became lower compared to controls | 18.0% | – | negatively affects survival | – | – | – | – | – | 1.28 |
| CC(C)(C(=O)O)c1ccc(C(O)CCCN2CCC(C(O)(c3ccccc3)c3ccccc3)CC2)cc1 (centres unmarked) [Fexofenadine, fexofenadine] | 1.20 | 1.40 | 0.85 | 0.65 | .316 | .826 | 0.73 (0.30-1.76) | .802 | 11.6% | non-statistically significant longer BC specific survival | clear, statistically significant, longer BC specific survival | 9.0% | – | – | – | – | – | – | – | – |
